Source: patent US4333942A, “Anti-depressant and analgesic 4-phenoxypiperidines” (BYK Gulden Lomberg Chemische Fabrik GmbH, priority 1979, dated 1982)
Where two headings read alike, the source gives them in different places.

Experiments:
[1] = Determination of the lethal effect (acute toxicity); design: species or system female albino mice NMRI; settings: mouse, in vivo; oral; mice; observation time 7 days
Description: (§1) All the experiments are carried out on female albino mice NMRI of 20 to 30 g body weight. 5 to 20 animals are employed per dose and the dose/response relationship are determined.
The mice were given food (Altromin®) and water ad libitum. The substances to be tested were administered orally as solutions of varying concentration in a volume of from 10 to 20 ml/kg using a stomach tube; 5 animals per dose were kept in Macrolon cages, type II. The observation time was 7 days. […] Literature: Litchfield and Wilkoxon ([…]) J. Pharm. Exp. Therap. 96/2, 99.

thermal pain = assay: Tail flick test (analgesia); assay type: in vivo, female albino mice NMRI; settings: Mus musculus; oral; dose which prolongs the reaction time by 50%; mice; read-out: Analgesic action, tail flick test ED50
Description: as §1
(a) Tail flick test: Albino mice are exposed to thermal pain, from a focused heat ray, at the tail root, and the time which elapses before the tail is drawn away is recorded. This time is usually in the range of from 4 to 5 seconds. The substances tested cause a delayed reaction to the thermal pain, that is a reduced thermal pain reaction. The dose which prolongs the reaction time by 50% is determined. Literature: D'Amour, F. E., and Smith, D. L., (1941) J. Pharmacol. Exp. Ther. 72, 74.

acetic acid writhing = assay: Acetic acid writhing test (analgesia); assay type: in vivo, female albino mice NMRI; settings: Mus musculus, read-out: Analgesic action, acetic acid writhing test ED50
Description: as §1
(b) Writhing test (acetic acid writhing): intraperitoneal injection of 0.2 ml/20 g of body weight of mouse of a 0.75% strength acetic acid solution induces in albino mice a typical syndrome proceeding over the body with dorsal flection, called "writhing". These "writhes" (occurring in the course of the first half hour after administration) are counted over a period of 5 to 20 minutes after administration of acetic acid. The substances tested (administered 30 minutes before the acetic acid injection) cause a reduction in the number of writhing syndromes. The dose which reduces the number thereof by 50%, relative to the daily control, is determined. Literature: Koster, Anderson, de Beer (1959) Fed.Proc. 18, 412.

Reserpine ptosis = assay: Antiptotic action (Reserpine antagonism); assay type: in vivo, female albino mice NMRI; settings: Mus musculus
Description: as §1
Antiptotic action (Reserpine antagonism)
Subcutaneous administration of 2 mg/kg of reserpine to albino mice causes ptosis in the course of several hours [Reserpine Ptosis, Domenjoz and Theobald (1959), Arch, Int. Pharmacodyn. 120,450]. The test substances are administered to the animals orally in various doses 3 hours before the administration of reserpine. The intensity of ptosis is graded by a rating scale 3-2-1-0 (complete, moderate, slight, no ptosis) in the 2nd, 3rd and 4th hour after administration of the reserpine (that is 5, 6 and 7 hours after administration of the substance). The substances tested antagonize the ptosis according to the dose. The ED50 of the antagonistic action is evaluated in comparison to the daily reserpine control.

[2] = po, 5 h, read-out: Antiptotic action, Reserpine antagonism ED50, 5 hours after administration
[3] = po, 6 h, read-out: Antiptotic action, Reserpine antagonism ED50, 6 hours after administration
[4] = po, 7 h, read-out: Antiptotic action, Reserpine antagonism ED50, 7 hours after administration
[5] = oral, 30 minutes before acetic acid, dose which reduces writhes by 50%, mice
[6] = read-out: Antiptotic action, Reserpine antagonism ED50, oral, 5 hours after administration, reserpine 2 mg/kg s.c., mice
[7] = oral, 6 hours after administration, reserpine 2 mg/kg s.c., mice, read-out: Antiptotic action, Reserpine antagonism ED50, 6 hours after administration
[8] = oral, 7 hours after administration, reserpine 2 mg/kg s.c., mice, read-out: Antiptotic action, Reserpine antagonism ED50, 7 hours after administration

Compound	LD50 at 168 h [1]	ED50 (thermal pain)	ED50 (acetic acid writhing; po)	ED50 (Reserpine ptosis; [2])	ED50 (Reserpine ptosis; [3])	ED50 (Reserpine ptosis; [4])	ED50 (acetic acid writhing; [5])	ED50 (Reserpine ptosis; [6])	ED50 (Reserpine ptosis; [7])	ED50 (Reserpine ptosis; [8])
CC(=O)Nc1ccc(OC2(c3ccccc3)CCN(C)CC2)cc1 [compound 10]	100 to 200 mg/kg	12.5 mg/kg	10 mg/kg	< 10 mg/kg	< 10 mg/kg	< 10 mg/kg				
CC(C)(C)N1CCC(Oc2ccc([N+](=O)[O-])cc2)(c2ccccc2)CC1 [Serial No. 9, 1-(tert.-Butyl)-4-(4-nitrophenoxy)-4-phenylpiperidine]			10 mg/kg							
CN1CCC(Oc2ccccc2)(c2ccccc2)CC1 [compound 2]	220 mg/kg	35 mg/kg		2.1 mg/kg	2.7 mg/kg	4 mg/kg				
CN1CCC(Cc2ccccc2)(Oc2ccc([N+](=O)[O-])cc2)CC1 [compound 6]	290 mg/kg	> 75 mg/kg					35 mg/kg			
c1ccc(OC2(c3ccccc3)CCNCC2)cc1 [compound 8]	> 200 mg/kg	25 mg/kg					50 mg/kg	~25 mg/kg	> 50 mg/kg	> 50 mg/kg
CN1CCC(Cc2ccccc2)(Oc2ccccc2)CC1 [compound 7]	300 mg/kg	55 mg/kg					27 mg/kg			
CN1CCC(Oc2ccc(N)cc2)(c2ccccc2)CC1 [compound 5]	160 mg/kg	12 mg/kg	7 mg/kg	0.7 mg/kg	3 mg/kg	10 mg/kg				
CN1CCC(Oc2ccc([N+](=O)[O-])cc2)(c2ccccc2)CC1 [compound 3]	140 mg/kg	50 mg/kg		0.7 mg/kg	2 mg/kg	5.8 mg/kg				
CN(C)CCCN1c2ccccc2CCc2ccccc21 [Serial No. 1, Imipramine, reference compound]		> 50 mg/kg					> 100 mg/kg	18 mg/kg	50 mg/kg	100 mg/kg
CN1CCC(Cc2ccccc2)(Oc2ccc(N)cc2)CC1 [compound 4]	180 mg/kg	2 mg/kg					27 mg/kg	9.5 mg/kg	24 mg/kg	50 mg/kg
